For four compounds, MIC results are on record in patent US4068074A, “Cephalosporin derivatives having at the 3-position of the cephem ring a heterocyclic thiomethyl group with a carboxy or sulfo group and at the 7-position of the cephem ring an α-heterocylic acylaminophenyl-acetamide group” (priority 1974, dated 1978).

Format in all cases: cell-based
Test [1] concerns Proteus vulgaris 0X 19US. The test is described as follows: MIC against bacteria (Table I), strain (2). Conditions: 0X19US; (2) Proteus vulgaris 0X 19US; read-out: MIC. The text has this: (§1) Now, for illustrating the excellent pharmacological effects of the compounds of this invention, the values of MIC (γ/ml.) of the compounds against various bacteria are shown in Table 1, in which the compounds of this invention used are shown by example numbers.
(2) Proteus vulgaris 0X 19US

For test [2], the system named is Proteus mirabilis IXM OM-19. Put plainly: MIC against bacteria (Table I), strain (3). Conditions: IXMOM19; (3) Proteus mirabilis IXM OM-19; read-out: MIC.
Text: as §1
(3) Proteus mirabilis IXM OM-19

Test [3] relates to Pseudomonas aeruginosa 99 (Gentamycin resistant). The test is described as follows: MIC against bacteria (Table I), strain (5).
Text: as §1
(5) Pseudomonas aeruginosa 99 (Gentamycin resistant)

Test [4] concerns Psuedomonas ovalis IMA 1002. The test is described as follows: MIC against bacteria (Table I), strain (6).
Text: as §1
(6) Psuedomonas ovalis IMA 1002

Test [5] deals with Escherichia coli kauffmann 0-1. Put plainly: MIC against bacteria (Table I), strain (7).
Text: as §1
(7) Escherichia coli kauffmann 0-1

In test [6] the test system is Klebsiella pneumoniae ATCC 10031. The test is described as follows: MIC against bacteria (Table I), strain (8). The settings on record: ATCC10031.
Text: as §1
(8) Klebsiella pneumoniae ATCC 10031

Test [7] relates to Salmonella typhi H901 W. The test is described as follows: MIC against bacteria (Table I), strain (9). Conditions: Salmonella enterica, TYPHI.
Text: as §1
(9) Salmonella typhi H901 W

Test [8] deals with Salmonella enteritidis. The test is described as follows: MIC against bacteria (Table I), strain (10). Conditions: Salmonella enterica.
Text: as §1
(10) Salmonella enteritidis

For test [9], the system named is Shigella flexneri 2a 1675. The test is described as follows: MIC against bacteria (Table I), strain (11). The settings on record: 2A1675; (11) Shigella flexneri 2a 1675; read-out: MIC.
Text: as §1

Test [10] concerns Shigella sonnei II 37148. The test is described as follows: MIC against bacteria (Table I), strain (12). The settings on record: II37148; (12) Shigella sonnei II 37148; read-out: MIC.
Text: as §1

Test [11] concerns Bacillus megatherium 10778. The test is described as follows: MIC against bacteria (Table I), strain (13).
Text: as §1

For test [12], the system named is Bacillus subtilis ATCC 6633. Put plainly: MIC against bacteria (Table I), strain (14). The settings on record: ATCC6633.
Text: as §1
(14) Bacillus subtilis ATCC 6633

The test system of test [13] is Micrococcus flavus ATCC 10240. Put plainly: MIC against bacteria (Table I), strain (15). The settings on record: ATCC10240; (15) Micrococcus flavus ATCC 10240; read-out: MIC.
Text: as §1
(15) Micrococcus flavus ATCC 10240

The subject of test [14] is Staphylococcus aureus 209P. The test is described as follows: MIC against bacteria (Table I), strain (16).
Text: as §1
(16) Staphylococcus aureus 209P

Test [15] relates to Staphylococcus Shimanishi. The test is described as follows: MIC against bacteria (Table I), strain (17). Conditions: (17) Staphylococcus Shimanishi; read-out: MIC.
Text: as §1
(17) Staphylococcus Shimanishi

Test [16] has as its system Staphylococcus Onuma. The test is described as follows: MIC against bacteria (Table I), strain (18). Conditions: (18) Staphylococcus Onuma; read-out: MIC.
Text: as §1
(18) Staphylococcus Onuma

[17] abbreviates: (6) Psuedomonas ovalis IMA 1002, read-out: MIC.
[18] abbreviates: (8) Klebsiella pneumoniae ATCC 10031, read-out: MIC.
[19] abbreviates: (10) Salmonella enteritidis, read-out: MIC.
Setting [20] is: (13) Bacillus megatherium 10778, read-out: MIC.
Setting [21] is: (14) Bacillus subtilis ATCC 6633, read-out: MIC.
Setting [22] is: (5) Pseudomonas aeruginosa 99 (Gentamycin resistant), read-out: MIC.

Values after ≈ are worked out from the molar mass of the structure shown. Read-outs that look alike come from different tables or passages of the source.

For orientation: MIC means the smallest concentration in the dilution series that meets the test's criterion for growth inhibition. As to `COc1cc(O)ncc1C(=O)N[C@@H](C(=O)N[C@@H]1C(=O)N2C(C(=O)O)=C(CSc3nnc(SCC(=O)O)s3)CS[C@H]12)c1ccccc1` [Example 28, 7-[D-α-(6-hydroxy-4-methoxynicotinoylamido)-α-phenylacetamido]-3-(5-carboxymethylthio-1,3,4-thiadiazol-2-yl)thiomethyl-Δ^3-cephem-4-carboxylic acid], the MIC is 12.5 µg/mL (≈ 17.7 µM) in test [1]; 6.25 µg/mL (≈ 8.87 µM) in [2]; 25 µg/mL (≈ 35.5 µM) in test [3] (Pseudomonas aeruginosa); 50 µg/mL (≈ 70.9 µM) in test [4] (setting [17]); 25 µg/mL (≈ 35.5 µM) in test [5] (Escherichia coli); 50 µg/mL (≈ 70.9 µM) in [6] (setting [18]). In addition, the minimum inhibitory concentration (MIC) was 50 µg/mL (≈ 70.9 µM) in test [7]; 12.5 µg/mL (≈ 17.7 µM) in test [8] (setting [19]); 25 µg/mL (≈ 35.5 µM) in test [9]; 25 µg/mL (≈ 35.5 µM) in test [10]; 6.25 µg/mL (≈ 8.87 µM) in test [11] (setting [20]); 12.5 µg/mL (≈ 17.7 µM) in [12] (setting [21]). In addition, the MIC stood at 12.5 µg/mL (≈ 17.7 µM) in test [13]; 12.5 µg/mL (≈ 17.7 µM) in test [14] ((16) Staphylococcus aureus 209P, read-out: MIC); 100 µg/mL (≈ 142 µM) in [15]; 100 µg/mL (≈ 142 µM) in [16].
With `O=C(O)CCCc1nnc(SCC2=C(C(=O)O)N3C(=O)[C@@H](NC(=O)[C@H](NC(=O)c4cnccc4O)c4ccccc4)[C@H]3SC2)s1` [Example 35, 7-[D-α-(4-hydroxynicotinoylamido)-α-phenylacetamido]-3-[5-(3-carboxypropyl)-1,3,4-thiadiazol-2yl]-thiomethyl-Δ^3 cephem-4-carboxylic acid], the MIC in test [1] was 50 µg/mL (≈ 74.5 µM); in test [2] it was 0.78 µg/mL (≈ 1.16 µM); in [3] (Pseudomonas aeruginosa) it was 6.25 µg/mL (≈ 9.32 µM); in test [4] it was 6.25 µg/mL (≈ 9.32 µM); in test [5] ((7) Escherichia coli kauffmann 0-1, read-out: MIC) it was 3.13 µg/mL (≈ 4.67 µM); in test [6] (Klebsiella pneumoniae), 6.25 µg/mL (≈ 9.32 µM). Also, the MIC in test [7] worked out at 1.56 µg/mL (≈ 2.33 µM); in [8] (setting [19]) it was 0.78 µg/mL (≈ 1.16 µM); in test [9] it was 1.56 µg/mL (≈ 2.33 µM); in test [10] it was 6.25 µg/mL (≈ 9.32 µM); in test [11] (setting [20]), 0.78 µg/mL (≈ 1.16 µM); in test [12] (setting [21]) it was 0.78 µg/mL (≈ 1.16 µM). In addition, the minimum inhibitory concentration (MIC) in test [13] was 3.13 µg/mL (≈ 4.67 µM); in test [14] (Staphylococcus aureus, 209P), 1.56 µg/mL (≈ 2.33 µM); in test [16] it was 12.5 µg/mL (≈ 18.6 µM).
As for `Cc1cc(O)c(C(=O)N[C@@H](C(=O)N[C@@H]2C(=O)N3C(C(=O)O)=C(CSc4nnc(CCCC(=O)O)s4)CS[C@H]23)c2ccccc2)cn1` [Example 36, 7-[D-α-(4-hydroxy-6-methylnicotinoylamido)-α-phenylacetamido]-3-[5-(3-carboxypropyl)-1,3,4-thiadiazol-2-yl]thiomethyl-Δ^3-cephem-4-carboxylic acid], the MIC is 100 µg/mL (≈ 146 µM) in test [1]; 0.39 µg/mL (≈ 0.57 µM) in test [2]; 6.25 µg/mL (≈ 9.13 µM) in test [3] (setting [22]); 25 µg/mL (≈ 36.5 µM) in [4] (setting [17]); 1.56 µg/mL (≈ 2.28 µM) in test [5] (Escherichia coli); 6.25 µg/mL (≈ 9.13 µM) in test [6] (setting [18]). Also, the MIC in test [7] came to 1.56 µg/mL (≈ 2.28 µM); in [8] (ENTERITIDIS), 1.56 µg/mL (≈ 2.28 µM); in test [9] it was 0.78 µg/mL (≈ 1.14 µM); in [10], 3.13 µg/mL (≈ 4.57 µM); in test [11] (Bacillus, 10778), 0.78 µg/mL (≈ 1.14 µM); in test [12] (Bacillus subtilis) it was 1.56 µg/mL (≈ 2.28 µM). Besides, the MIC came out at 6.25 µg/mL (≈ 9.13 µM) in test [13]; 1.56 µg/mL (≈ 2.28 µM) in test [14] (Staphylococcus aureus, 209P); 12.5 µg/mL (≈ 18.3 µM) in test [16].
Take `Cc1cc(O)c(C(=O)N[C@@H](C(=O)N[C@@H]2C(=O)N3C(C(=O)O)=C(CSc4nnc(CC(=O)O)s4)CS[C@H]23)c2ccccc2)cn1` [Example 38, 7-[D-α-(4-hydroxy-6-methylnicotinoylamido)-α-phenylacetamido]-3-(5-carboxymethyl-1,3,4-thiadiazol-2-yl)-thiomethyl-Δ^3-cephem-4-carboxylic acid]: the MIC was found to be 0.78 µg/mL (≈ 1.19 µM) in test [2]; 12.5 µg/mL (≈ 19 µM) in test [3] (setting [22]); 50 µg/mL (≈ 76.1 µM) in [4] (setting [17]); 3.13 µg/mL (≈ 4.77 µM) in test [5] (Escherichia coli); 12.5 µg/mL (≈ 19 µM) in test [6] (setting [18]); 1.56 µg/mL (≈ 2.38 µM) in [7]. Also, the MIC in [8] (ENTERITIDIS) was 1.56 µg/mL (≈ 2.38 µM); in test [9], 1.56 µg/mL (≈ 2.38 µM); in test [10], 3.13 µg/mL (≈ 4.77 µM); in test [11] (Bacillus, 10778) it was 1.56 µg/mL (≈ 2.38 µM); in test [12] (Bacillus subtilis), 1.56 µg/mL (≈ 2.38 µM); in test [13], 12.5 µg/mL (≈ 19 µM). The MIC stood at 3.13 µg/mL (≈ 4.77 µM) in [14] (Staphylococcus aureus, 209P) and 12.5 µg/mL (≈ 19 µM) in test [16].
